The numbers were not newly measured in publication PMC2605181 (Nature chemical biology, 2008), which cites them from elsewhere.

The conditions of data set [1]: cited from earlier work.
For a further data set, the system named is MAGL. Conditions: cited from earlier work.

Each structure is given as a SMILES string.

As for `CCCCC/C=C\C/C=C\C/C=C\C/C=C\CCCCN1C(=O)C=CC1=O` [NAM], the “potentiation of pharmacological effects of 2-AG in vivo” value in data set [1] is recorded as “potentiate the pharmacological effects of 2-AG”. In the data set with MAGL, the “selectivity for MAGL over FAAH and other serine hydrolases” value is “some selectivity”.
